The values below come from patent publication US9499502B2, “5-substituted iminothiazines and their mono- and dioxides as BACE inhibitors, compositions, and their use” (Merck Sharp & Dohme Corp., priority 2011, dated 2016).

The structures appear in SMILES notation. Where two headings read alike, the source gives them in different places.

This assay addresses soluble human BACE1 catalytic domain (Homo sapiens (Human), UniProt P56817). The assay can be described thus: BACE1 HTRF FRET Assay.
Setting [1] is: read-out: BACE1 Ki, Ki calculated from IC50 using the Cheng-Prusoff equation.
Setting [2] is: read-out: BACE1 inhibition, % Inh. at 10 μM, at 10 μM.

Sequence of soluble human BACE1 catalytic domain (P56817 75-416): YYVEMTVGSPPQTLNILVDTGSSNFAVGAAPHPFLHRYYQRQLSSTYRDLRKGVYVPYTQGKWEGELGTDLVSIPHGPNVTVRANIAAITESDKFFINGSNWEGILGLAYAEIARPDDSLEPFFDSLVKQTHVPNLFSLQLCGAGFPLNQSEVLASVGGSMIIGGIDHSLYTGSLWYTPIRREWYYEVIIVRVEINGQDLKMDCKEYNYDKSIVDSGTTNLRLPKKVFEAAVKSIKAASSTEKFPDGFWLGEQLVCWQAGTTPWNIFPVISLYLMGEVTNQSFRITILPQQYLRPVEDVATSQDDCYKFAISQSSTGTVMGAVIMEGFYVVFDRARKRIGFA

For `CC1(C)C(=N)N[C@](C)(c2sc(-c3nnc(-c4ccc(C#N)cc4)o3)cc2F)CS1(=O)=O` [Example 27bi], the Ki (read-out: BACE1 Ki) was 48.9 nM.
Regarding `CC1(C)C(=N)N[C@](C)(c2sc(-c3ccc(C#N)c(C(F)(F)F)c3)cc2Cl)CS1(=O)=O` [Example 27t], where the note is “read-out: BACE1 Ki”, the inhibition constant Ki worked out at 291 nM.
For `CC1(C)C(=N)N[C@](C)(c2sc(-c3cn4ccsc4n3)cc2Cl)CS1(=O)=O` [Example 28b], the Ki (read-out: BACE1 Ki) is 2630 nM.
Still for that read-out and setting: with `COc1ncc(-c2cc(Cl)c([C@]3(C)CS(=O)(=O)C(C)(C)C(=N)N3)s2)cn1` [Example 27y] the figure was 1720 nM.
On to `CC1(C)C(=N)N[C@](C)(c2sc(-c3cc(F)cc(-c4cnco4)c3)cc2Cl)CS1(=O)=O` [Example 27aa], for which the inhibitory constant (Ki) under setting [1] is 26.1 nM.
On to `C[C@]1(CC(F)(F)F)C(=N)N[C@](C)(c2cc(N)ccc2F)CS1(=O)=O` [Entry 35], for which the inhibitory constant (Ki) (read-out: BACE1 inhibition, Ki) came to 3000 nM.
Take `CC1(C)C(=N)N[C@](C)(c2cc(NC(=O)C3CCC3(F)F)cc(F)c2F)CS1(=O)=O` (stereo partly drawn) [Example 9br]: the inhibitory constant (Ki) under setting [1] is 610 nM.
Regarding `CC1(C)C(=N)N[C@](C)(c2sc(C(=O)NCc3cnn4ccccc34)cc2Cl)CS1(=O)=O` [Example 22s], under setting [1], the Ki was 128 nM.
As for `CC1(C(=O)Nc2cc(F)c(F)c([C@]3(C)CS(=O)(=O)C(C)(C)C(=N)N3)c2)CC1` [Example 9az], the inhibition constant Ki under setting [1] is 708 nM.
For `CC1(C)C(=N)N[C@](C)(c2nc3ccc(-c4ccc(F)cc4)cc3s2)CS1(=O)=O` [Example 29b], the Ki (read-out: BACE1 Ki) came out at 2330 nM.
Take `COc1ccc(C(=O)Nc2ccc(F)c([C@]3(C)CS(=O)(=O)[C@@](C)(CC(F)(F)F)C(=N)N3)c2)nc1` [Example 9dq-a]: the inhibition constant Ki under setting [1] is 8.5 nM.
Turning to `CC1(C)C(=N)N[C@](C)(c2sc(C(=O)NCc3cccc(Cl)c3)cc2Cl)CS1(=O)=O` [Example 22l], the Ki under setting [1] is 1270 nM.
In the case of `C[C@@]1(c2cccc(C(F)(F)F)c2)C(=N)N[C@](C)(c2ccc(F)cc2F)CS1(=O)=O` [Example 32h-b], for the setting “read-out: BACE1 Ki”, the inhibitory constant (Ki) stood at 2120 nM.
Consider `C[C@@]1(c2ccccn2)C(=N)N[C@](C)(c2sc(Br)cc2F)CS1(=O)=O` [Entry 86], for which, under setting [2], the inhibition at 10 µM is 44%.
For the compound `CC1(C)C(=N)N[C@](C)(c2sc(-c3cccc(C#N)c3F)cc2Cl)CS1(=O)=O` [Example 27z], the Ki (read-out: BACE1 Ki) came out at 400 nM.
As for `CC1(C)C(=N)N[C@](C)(c2cc(-c3cccc(-c4cnco4)c3)cs2)CS1(=O)=O` [Example 27ai], the inhibition constant Ki (read-out: BACE1 Ki) worked out at 74 nM.
In the case of `C[C@@]1(c2cc(N)ccc2F)CS(=O)(=O)[C@@](C)(C2CCC2)C(=N)N1` [Entry 39], the Ki (read-out: BACE1 inhibition, Ki) came to 1700 nM.
In the case of `CC1(C)C(=N)N[C@](C)(c2nc(-c3cccc(C#N)c3)ccc2F)CS1(=O)=O` [Example 16b], the Ki under setting [1] was 4960 nM.
On the same count and under the same terms, to `COc1cnc(C(=O)Nc2ccc(F)c([C@]3(C)CS(=O)(=O)[C@@](C)(C4CCOCC4)C(=N)N3)c2)cn1` [Example 9du-a] belongs 3.4 nM; to `COc1ccc(C(=O)Nc2ccc(F)c([C@]3(C)CS(=O)(=O)[C@@](C)(c4ccccn4)C(=N)N3)c2)nc1` [Example 9cx-a], 7.1 nM.
The same measure, in the same setting: with `CC1(C)C(=N)N[C@](C)(c2cc(NC(=O)C3CC3)ccc2F)CS1(=O)=O` [Example 9am] the figure was 359 nM.
Regarding `COc1cnc(C(=O)Nc2cc(Cl)c(F)c([C@]3(C)CS(=O)(=O)C(C)(C)C(=N)N3)c2)cn1` [Example 9w], the Ki under setting [1] is 4.4 nM.
As for `Cc1nc(C(=O)Nc2ccc(F)c([C@]3(C)CS(=O)(=O)C(C)(C)C(=N)N3)c2)no1` [Example 9g], the Ki under setting [1] is 1.9 nM.
Consider `C[C@]1(Cc2cccc(Br)c2)C(=N)N[C@](C)(c2ccc(F)cc2F)CS1(=O)=O` [Example 32j-a], for which the Ki (read-out: BACE1 Ki) was determined as 2100 nM.
With `C[C@@]1(c2cc(N)ccc2F)CS(=O)(=O)[C@@](C)(c2cc(C(F)(F)F)ccn2)C(=N)N1` [Entry 72], the inhibitory constant (Ki) (read-out: BACE1 inhibition, Ki) is 1400 nM.
Regarding `C[C@]1(CC2CC2)C(=N)N[C@](C)(c2cc(NC(=O)c3ccc(Cl)cn3)ccc2F)CS1(=O)=O` [Example 9di-a], the Ki under setting [1] is 4.3 nM.
Same read-out and setting: with `CC1(C)C(=N)N[C@](C)(c2sc(C(=O)NCc3ccccc3Cl)cc2Cl)CS1(=O)=O` [Example 22h] the figure was 1620 nM.
For the compound `COc1cnc(C(=O)Nc2cc(F)c(F)c([C@]3(C)CS(=O)(=O)C(C)(C)C(=N)N3)c2)c(F)c1` [Example 9o], the inhibitory constant (Ki) under setting [1] is 3 nM.
On the same count and under the same terms, with `C[C@]1(CC2CC2)C(=N)N[C@](C)(c2cc(NC(=O)c3ccc(F)cn3)ccc2F)CS1(=O)=O` [Example 9dh-a] the figure was 7.5 nM.
`C[C@@]1(c2ccccc2F)C(=N)N[C@](C)(c2sc(-c3cccc(C#N)c3)cc2F)CS1(=O)=O` [Example 27bs-b]: the Ki (read-out: BACE1 Ki) came out at 3170 nM.
On the same count and under the same terms, with `COc1cccn2cc(-c3cc(Cl)c([C@]4(C)CS(=O)(=O)C(C)(C)C(=N)N4)s3)nc12` [Example 28a] the figure was 804 nM.
As for `CC1(C)C(=N)N[C@](C)(c2cc(NC(=O)C3(C#N)CC3)cc(F)c2F)CS1(=O)=O` [Example 9bj], under setting [1], the Ki was 485 nM.
Consider `COc1cccc(C[C@@]2(C)C(=N)N[C@](C)(c3ccc(F)cc3F)CS2(=O)=O)c1` [Example 32i-a], for which, under “read-out: BACE1 Ki”, the Ki came out at 3120 nM.
Consider `CC(C)[C@@]1(C)C(=N)N[C@](C)(c2cc(N)ccc2F)CS1(=O)=O` [Entry 27], for which the inhibitory constant (Ki) (read-out: BACE1 inhibition, Ki) came out at 4800 nM.
Turning to `CC1(C)C(=N)N[C@](C)(c2cc(NC(=O)c3ccc(C#N)cn3)ccc2F)CS1(=O)=O` [Example 9b], under setting [1], the Ki was below 0.5 nM.
Take `COc1cccc([C@]2(C)C(=N)N[C@](C)(c3ccc(F)cc3F)CS2(=O)=O)c1` [Example 32f-b]: the inhibition at 10 µM under setting [2] turned out to be 30%.
`Cc1noc(CC(=O)Nc2cc(F)c(F)c([C@]3(C)CS(=O)(=O)C(C)(C)C(=N)N3)c2)n1` [Example 9bq]: the inhibition constant (Ki) under setting [1] was 4960 nM.
In the case of `CC1(C)C(=N)N[C@](C)(c2sc(-c3coc(-c4ccc(F)cc4)n3)cc2Cl)CS1(=O)=O` [Example 27x], the inhibitory constant (Ki) (read-out: BACE1 Ki) stood at 1110 nM.
For the compound `Cc1cccc(CNC(=O)c2cc(Cl)c([C@]3(C)CS(=O)(=O)C(C)(C)C(=N)N3)s2)n1` [Example 22c], the Ki under setting [1] was 7880 nM.
Consider `C[C@@]1(c2cc(NC(=O)c3ccc(F)cn3)ccc2F)CS(=O)(=O)[C@@](C)(C2CCC2)C(=N)N1` [Example 9dv-a], for which the Ki under setting [1] is 7 nM.
As for `CC1(C)C(=N)N[C@](C)(c2cc(-c3cncc(-c4ncco4)c3)cs2)CS1(=O)=O` [Example 27ak], the Ki (read-out: BACE1 Ki) is 128 nM.
Consider `CC1(C)C(=N)N[C@](C)(c2cc(NC(=O)c3ccc(F)cn3)cc(Cl)c2F)CS1(=O)=O` [Example 9s], for which the Ki under setting [1] is 6.3 nM.
On the same count and under the same terms, with `CC1(C)C(=N)N[C@](C)(c2sc(C(=O)NCc3ccsn3)cc2Cl)CS1(=O)=O` [Example 22v] the figure was 292 nM; with `C[C@@]1(c2cc(NC(=O)c3ccc(F)cn3)ccc2F)CS(=O)(=O)[C@@](C)(c2ccccc2F)C(=N)N1` [Example 9dn-a], 21.4 nM.
With `CN(C)CC(=O)Nc1cc(F)c(F)c([C@]2(C)CS(=O)(=O)C(C)(C)C(=N)N2)c1` [Example 9bw], the inhibition at 10 µM (read-out: BACE1 % Inh. at 10 μM, at 10 μM) is 48%.
For `C[C@@]1(c2cc([N+](=O)[O-])ccc2F)CS(=O)(=O)[C@@](C)(c2cccc(C(F)(F)F)c2)C(=N)N1` [Entry 66], the Ki (read-out: BACE1 inhibition, Ki) turned out to be 600 nM.
On to `COc1ccc(C(=O)Nc2ccc(F)c([C@]3(C)CS(=O)(=O)C(C)(C)C(=N)N3)n2)nc1` [Example 9ce], for which the inhibition constant (Ki) under setting [1] was 55.1 nM.
As to `CC1(C)C(=N)N[C@](C)(c2sc(-c3cc(F)cc(F)c3)cc2Cl)CS1(=O)=O` [Example 27i], the Ki (read-out: BACE1 Ki) amounted to 170 nM.
Regarding `C[C@]1(CC2CCOCC2)C(=N)N[C@](C)(c2sc(-c3cncc(C#N)c3)cc2Cl)CS1(=O)=O` [Example 27bw], the Ki (read-out: BACE1 Ki) amounted to 163 nM.
Regarding `CCC(=O)Nc1cc(F)c(F)c([C@]2(C)CS(=O)(=O)C(C)(C)C(=N)N2)c1` [Example 9be], under setting [1], the inhibition constant (Ki) is 429 nM.
Same read-out and setting: with `CC1(C)C(=N)N[C@](C)(c2cc(NC(=O)c3ccc(Cl)cc3)ccc2F)CS1(=O)=O` [Example 8] the figure was 19 nM.
Consider `CC1(C)C(=N)N[C@](C)(c2sc(-c3cc4ccccc4s3)cc2Cl)CS1(=O)=O` [Example 27f], for which the Ki (read-out: BACE1 Ki) amounted to 1180 nM.
Consider `CC1(C)C(=N)N[C@](C)(c2sc(C(=O)Nc3cccc(C(F)(F)F)n3)cc2Cl)CS1(=O)=O` [Example 22], for which, under setting [1], the Ki was 175 nM.
On the same count and under the same terms, with `CC1(C)C(=N)N[C@](C)(c2cc(NC(=O)c3ccc(Cl)cn3)cc(F)c2F)CS1(=O)=O` [Example 9l] the figure was 4.3 nM; with `CC1(C)C(=N)N[C@](C)(c2cc(NC(=O)c3ccc(OC(F)F)cn3)ccc2F)CS1(=O)=O` [Example 9c], 0.6 nM.
On to `CC1(C)C(=N)N[C@](C)(c2sc(-c3cnc(-c4ccc(F)cc4)o3)cc2Cl)CS1(=O)=O` [Example 27v], for which, for the setting “read-out: BACE1 Ki”, the inhibition constant Ki was determined as 71.4 nM.
On to `COc1ccc(C(=O)Nc2cc(Cl)c(F)c([C@]3(C)CS(=O)(=O)C(C)(C)C(=N)N3)c2)nc1` [Example 9u], for which the inhibition constant (Ki) under setting [1] was 5.8 nM.
On the same count and under the same terms, with `COc1ccc(C(=O)Nc2ccc(F)c([C@]3(C)CS(=O)(=O)[C@@](C)(C4CCOCC4)C(=N)N3)c2)nc1` [Example 9dt-a] the figure was 3 nM.
On to `CC1(C)C(=N)N[C@](C)(c2cccc(Cl)c2F)CS1(=O)=O` [Entry 7], for which the Ki (read-out: BACE1 inhibition, Ki) is 1400 nM.
With `CC1(C)C(=N)N[C@](C)(c2cc(NC(=O)CC3CC3)ccc2F)CS1(=O)=O` [Example 9ar], under setting [1], the Ki was 915 nM.
On to `C[C@@]1(c2sc(-c3nnc(-c4ccc(Cl)cc4)o3)cc2F)CS(=O)(=O)[C@@](C)(c2ccccn2)C(=N)N1` [Example 27bz-b], for which, for the setting “BACE1 Ki (nM)”, the inhibition constant (Ki) was 791 nM.
Same read-out and setting: with `Cc1nc2cc(CC3(C)C(=N)N[C@](C)(c4cc(F)ccc4F)CS3(=O)=O)ccc2o1` (single isomer, unassigned) [Example 32a-a] the figure was 3860 nM.
`COc1cncc(-c2cc(Cl)c([C@]3(C)CS(=O)(=O)C(C)(C)C(=N)N3)s2)n1` [Example 27w]: the Ki (read-out: BACE1 Ki) worked out at 1290 nM.
In the case of `CC1(C)C(=N)N[C@](C)(c2sc(-c3cc(F)cc(-c4nnco4)c3)cc2Cl)CS1(=O)=O` [Example 27ab], under setting [1], the Ki is 15.4 nM.
`CC1(C)C(=N)N[C@](C)(c2cc(NC(=O)C3(C#N)CC3)ccc2F)CS1(=O)=O` [Example 9ah]: the Ki under setting [1] is 210 nM.
Still for that read-out and setting: to `CC1(C)C(=N)N[C@](C)(c2cc(NC(=O)c3ccno3)cc(F)c2F)CS1(=O)=O` [Example 9bs] belongs 171 nM.

In general, Ki refers to the dissociation constant of the complex between target and ligand, obtained from inhibition or displacement.
